Assay results reported in patent US8748426B2, “Inhibitors of diacylglycerol acyl transferase” (Piramal Enterprises Limited, priority 2009, dated 2014).

Target: T1, hDGAT1 (Homo sapiens, UniProt O75907)
T1 sequence (O75907 1-488): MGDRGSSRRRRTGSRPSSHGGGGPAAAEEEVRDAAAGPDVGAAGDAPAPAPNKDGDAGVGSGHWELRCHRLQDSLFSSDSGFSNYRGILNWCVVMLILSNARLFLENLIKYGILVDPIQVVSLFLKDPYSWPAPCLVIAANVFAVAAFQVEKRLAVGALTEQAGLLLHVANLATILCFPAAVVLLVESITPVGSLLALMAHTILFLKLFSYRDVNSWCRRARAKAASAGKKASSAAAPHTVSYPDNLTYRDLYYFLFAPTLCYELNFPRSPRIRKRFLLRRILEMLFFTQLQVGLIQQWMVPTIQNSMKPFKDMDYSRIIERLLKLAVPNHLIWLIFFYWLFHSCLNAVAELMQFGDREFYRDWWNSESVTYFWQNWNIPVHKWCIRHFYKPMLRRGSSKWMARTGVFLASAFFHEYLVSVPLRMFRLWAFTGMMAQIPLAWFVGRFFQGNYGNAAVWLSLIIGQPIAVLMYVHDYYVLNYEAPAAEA
Assay: In-vitro DGAT1 assay (14C oleoyl CoA, hDGAT1 microsomes from Sf9 cells)
Conditions: at 1 μM

Structure (SMILES)	% Inhibition of hDGAT1
COC[C@@H](C(=O)O)N1Cc2ccc(-c3ccc(NC(=O)Nc4cccc(C(F)(F)F)c4)cc3)cc2C1=O [Example 355]	+ (10-50% Inhibition)
CC(C)[C@@H](C(=O)O)N1Cc2ccc(-c3ccc(NC(=O)c4ccc(-c5ccccc5)cc4)cc3C(F)(F)F)cc2C1=O [Example 426, (S)-2-(6-(4-Biphenyl-4-ylcarboxamido-2-(trifluoromethyl)phenyl)-1-oxoisoindolin-2-yl)-3-methylbutanoic acid]	+ (10-50% Inhibition)

Same assay, conditions: read-out: % Inhibition of hDGAT1

inhibition at 1 µM [%]	Structure (SMILES)
10 to 50	CC(C)C[C@@H](C(=O)O)N1Cc2ccc(-c3ccc(NC(=O)Nc4cccc(C(F)(F)F)c4)cc3)cc2C1=O [Example 352, (S)-4-Methyl-2-(1-oxo-6-(4-(3-(3-(trifluoromethyl)phenyl)ureido)phenyl)isoindolin-2-yl)pentanoic acid]
10 to 50	CC(C)[C@H](C(=O)O)N1Cc2cc(-c3ccc(NC(=O)Nc4cccc(C(F)(F)F)c4)cc3)ccc2C1=O [Example 361, (R)-3-Methyl-2-(1-oxo-5-(4-(3-(3-(trifluoromethyl)phenyl)ureido)phenyl)isoindolin-2-yl)butanoic acid]
10 to 50	O=C(O)CN1Cc2cc(-c3ccc(NC(=O)Nc4cccc(C(F)(F)F)c4)cc3)ccc2C1=O [Example 364, 2-(1-Oxo-5-(4-(3-(3-(trifluoromethyl)phenyl)ureido)phenyl)isoindolin-2-yl)acetic acid]
> 50	C[C@@H](C(=O)O)N1Cc2cc(-c3ccc(NC(=O)Nc4cccc(C(F)(F)F)c4)cc3)ccc2C1=O [Example 367, (S)-2-(1-Oxo-5-(4-(3-(3-(trifluoromethyl)phenyl)ureido)phenyl)isoindolin-2-yl)propanoic acid]
10 to 50	O=C(Nc1ccc(-c2ccc3c(c2)CN(C2(C(=O)O)CCCC2)C3=O)cc1)Nc1cccc(C(F)(F)F)c1 [Example 370, 1-(1-Oxo-5-(4-(3-(3-(trifluoromethyl)phenyl)ureido)phenyl)isoindolin-2-yl)cyclopentanecarboxylic acid]
10 to 50	O=C(Nc1ccc(-c2ccc3c(c2)CN([C@H](C(=O)O)c2ccccc2)C3=O)cc1)Nc1cccc(C(F)(F)F)c1 [Example 373, (S)-2-(1-Oxo-5-(4-(3-(3-(trifluoromethyl)phenyl)ureido)phenyl)isoindolin-2-yl)-2-phenylacetic acid]
10 to 50	O=C(O)CCCN1Cc2cc(-c3ccc(NC(=O)Nc4cccc(C(F)(F)F)c4)cc3)ccc2C1=O [Example 376, 4-(1-Oxo-5-(4-(3-(3-(trifluoromethyl)phenyl)ureido)phenyl)isoindolin-2-yl)butanoic acid]
10 to 50	O=C(O)CCN1Cc2cc(-c3ccc(NC(=O)Nc4cccc(C(F)(F)F)c4)cc3)ccc2C1=O [Example 379, 3-(1-Oxo-5-(4-(3-(3-(trifluoromethyl)phenyl)ureido)phenyl)isoindolin-2-yl)propanoic acid]
10 to 50	O=C(Nc1ccc(-c2ccc3c(c2)CN([C@@H](Cc2ccccc2)C(=O)O)C3=O)cc1)Nc1cccc(C(F)(F)F)c1 [Example 382, (S)-2-(1-Oxo-5-(4-(3-(3-(trifluoromethyl)phenyl)ureido)phenyl)isoindolin-2-yl)-3-phenylpropanoic acid]
10 to 50	COC[C@@H](C(=O)O)N1Cc2cc(-c3ccc(NC(=O)Nc4cccc(C(F)(F)F)c4)cc3)ccc2C1=O [Example 385, (S)-3-Methoxy-2-(1-oxo-5-(4-(3-(3-(trifluoromethyl)phenyl)ureido)phenyl)isoindolin-2-yl)propanoic acid]
10 to 50	CC(C)C[C@@H](C(=O)O)N1Cc2cc(-c3ccc(NC(=O)Nc4cccc(C(F)(F)F)c4)cc3)ccc2C1=O [Example 388, (S)-4-Methyl-2-(1-oxo-5-(4-(3-(3-(trifluoromethyl)phenyl)ureido)phenyl)isoindolin-2-yl)pentanoic acid]
> 50	CC(C)[C@@H](C(=O)O)N1Cc2ccc(-c3ccc(NC(=O)Nc4ccccc4Cl)cn3)cc2C1=O [Example 394, (S)-2-(6-(5-(3-(2-Chlorophenyl)ureido)pyridin-2-yl)-1-oxoisoindolin-2-yl)-3-methylbutanoic acid]
> 50	CC(C)[C@@H](C(=O)O)N1Cc2ccc(-c3ccc(NC(=O)Nc4ccc(Cl)cc4Oc4ccccc4)cn3)cc2C1=O [Example 396, (S)-2-(6-(5-(3-(4-Chloro-2-phenoxyphenyl)ureido)pyridin-2-yl)-1-oxoisoindolin-2-yl)-3-methylbutanoic acid]
> 50	Cc1ccc(NC(=O)Nc2ccc(-c3ccc4c(c3)C(=O)N([C@H](C(=O)O)C(C)C)C4)nc2)cc1C [Example 398, (S)-2-(6-(5-(3-(3,4-Dimethylphenyl)ureido)pyridin-2-yl)-1-oxoisoindolin-2-yl)-3-methylbutanoic acid]
> 50	CC(C)[C@@H](C(=O)O)N1Cc2ccc(-c3ccc(NC(=O)Nc4ccc5c(c4)CCC5)cn3)cc2C1=O [Example 402, (S)-2-(6-(5-(3-(2,3-Dihydro-1H-inden-5-yl)ureido)pyridin-2-yl)-1-oxoisoindolin-2-yl)-3-methylbutanoic acid]
> 50	CC(C)[C@@H](C(=O)O)N1Cc2ccc(-c3ccc(NC(=O)c4ccc(C(C)(C)C)cc4)cn3)cc2C1=O [Example 404, (S)-2-(6-(5-(4-tert-Butylbenzamido)pyridin-2-yl)-1-oxoisoindolin-2-yl)-3-methyl butanoic acid]
10 to 50	CC(C)[C@@H](C(=O)O)N1Cc2ccc(-c3ccc(NC(=O)Nc4ccccc4Cl)cc3C(F)(F)F)cc2C1=O [Example 416, (S)-2-(6-(4-(3-(2-Chlorophenyl)ureido)-2-(trifluoromethyl)phenyl)-1-oxoisoindolin-2-yl)-3-methylbutanoic acid]
10 to 50	CC(C)[C@@H](C(=O)O)N1Cc2ccc(-c3ccc(NC(=O)Nc4ccc(F)c(F)c4)cc3C(F)(F)F)cc2C1=O [Example 418, (S)-2-(6-(4-(3-(3,4-Difluorophenyl)ureido)-2-(trifluoromethyl)phenyl)-1-oxoisoindolin-2-yl)-3-methylbutanoic acid]
10 to 50	CC(C)[C@@H](C(=O)O)N1Cc2ccc(-c3ccc(NC(=O)Nc4ccc5c(c4)CCC5)cc3C(F)(F)F)cc2C1=O [Example 420, (S)-2-(6-(4-(3-(2,3-Dihydro-1H-inden-5-yl)ureido)-2-(trifluoromethyl)phenyl)-1-oxoisoindolin-2-yl)-3-methylbutanoic acid]
10 to 50	Cc1ccc(NC(=O)Nc2ccc(-c3ccc4c(c3)C(=O)N([C@H](C(=O)O)C(C)C)C4)c(C(F)(F)F)c2)cc1C [Example 422, (S)-2-(6-(4-(3-(3,4-Dimethylphenyl)ureido)-2-(trifluoromethyl)phenyl)-1-oxoisoindolin-2-yl)-3-methylbutanoic acid]
10 to 50	CC(C)[C@@H](C(=O)O)N1Cc2ccc(-c3ccc(NC(=O)c4ccc(C(C)(C)C)cc4)cc3C(F)(F)F)cc2C1=O [Example 424, (S)-2-(6-(4-(4-tert-Butylbenzamido)-2-(trifluoromethyl)phenyl)-1-oxoisoindolin-2-yl)-3-methylbutanoic acid]

Structure (SMILES)	inhibition at 1 µM [%]
CCCCOc1ccc(C(=O)Nc2ccc(-c3ccc4c(c3)C(=O)N([C@H](C(=O)O)C(C)C)C4)nc2)cc1 [Example 412, (S)-2-(6-(5-(4-Butoxybenzamido)pyridin-2-yl)-1-oxoisoindolin-2-yl)-3-methylbutanoic acid]	> 50
